Assay results as given in PMC6886798, “Expression of myeloid Src-family kinases is associated with poor prognosis in AML and influences Flt3-ITD kinase inhibitor acquired resistance” (PLoS ONE, 2019).

What was measured:
Assay in all cases: KINOMEscan
Format in all cases: binding
Conditions in all cases: 1.0 µM
HPK1 = target: T1, HPK1 (Homo sapiens, UniProt Q92918)
T1 construct: purchased Eurofins/DiscoverX KINOMEscan scanMAX
Description: (§1) Kinase retention to the immobilized ligand is then measured using quantitative real-time PCR for each kinase-specific DNA barcode.

EPHB6 = target: T2, EPHB6 (Homo sapiens, UniProt O15197)
T2 construct: purchased Eurofins/DiscoverX KINOMEscan scanMAX
Description: as §1

TIE2 = target: T3, TIE2 (Homo sapiens, UniProt Q02763)
T3 construct: purchased Eurofins/DiscoverX KINOMEscan scanMAX
Description: as §1

STK35 = target: T4, STK35 (Homo sapiens, UniProt Q8TDR2)
T4 construct: purchased Eurofins/DiscoverX KINOMEscan scanMAX
Description: as §1

PIK3CA(M1043I) = target: T5, PIK3CA(M1043I) (Homo sapiens, UniProt P42336, M1043I)
T5 construct: purchased Eurofins/DiscoverX KINOMEscan scanMAX
Description: as §1

DYRK1A = target: T6, DYRK1A (Homo sapiens, UniProt Q13627)
T6 construct: purchased Eurofins/DiscoverX KINOMEscan scanMAX
Description: as §1

FYN = target: T7, FYN (Homo sapiens, UniProt P06241)
T7 construct: purchased Eurofins/DiscoverX KINOMEscan scanMAX
Description: as §1

[1] = target: T8, RSK3(Kin.Dom.1-N-terminal) (Homo sapiens, UniProt Q15349)
T8 construct: RSK3(Kin.Dom.1-N-terminal); purchased Eurofins/DiscoverX KINOMEscan scanMAX
Description: as §1

MERTK = target: T9, MERTK (Homo sapiens, UniProt Q12866)
T9 construct: purchased Eurofins/DiscoverX KINOMEscan scanMAX
Description: as §1

SBK1 = target: T10, SBK1 (Homo sapiens, UniProt Q52WX2)
T10 construct: purchased Eurofins/DiscoverX KINOMEscan scanMAX
Description: as §1

SGK = target: T11, SGK (Homo sapiens, UniProt O00141)
T11 construct: purchased Eurofins/DiscoverX KINOMEscan scanMAX
Description: as §1

ERK5 = target: T12, ERK5 (Homo sapiens, UniProt Q13164)
T12 construct: purchased Eurofins/DiscoverX KINOMEscan scanMAX
Description: as §1

VRK2 = target: T13, VRK2 (Homo sapiens, UniProt Q86Y07)
T13 construct: DNA tag (qPCR barcode); purchased Eurofins/DiscoverX KINOMEscan scanMAX
Description: as §1

CDK4 = target: T14, CDK4 (Homo sapiens, UniProt P11802)
T14 construct: purchased Eurofins/DiscoverX KINOMEscan scanMAX
Description: as §1

PRKD1 = target: T15, PRKD1 (Homo sapiens, UniProt Q15139)
T15 construct: purchased Eurofins/DiscoverX KINOMEscan scanMAX
Description: as §1

PAK3 = target: T16, PAK3 (Homo sapiens, UniProt O75914)
T16 construct: purchased Eurofins/DiscoverX KINOMEscan scanMAX
Description: as §1

BMX = target: T17, BMX (Homo sapiens, UniProt P51813)
T17 construct: purchased Eurofins/DiscoverX KINOMEscan scanMAX
Description: as §1

[2] = target: T18, ABL1(F317I)-nonphosphorylated (Homo sapiens, UniProt P00519, F317I)
T18 construct: purchased Eurofins/DiscoverX KINOMEscan scanMAX
Description: as §1

KIT(D816H) = target: T19, KIT(D816H) (Homo sapiens, UniProt P10721, D816H)
T19 construct: purchased Eurofins/DiscoverX KINOMEscan scanMAX
Description: as §1

NLK = target: T20, NLK (Homo sapiens, UniProt Q9UBE8)
T20 construct: purchased Eurofins/DiscoverX KINOMEscan scanMAX
Description: as §1

PIK3CA(C420R) = target: T21, PIK3CA(C420R) (Homo sapiens, UniProt P42336, C420R)
T21 construct: purchased Eurofins/DiscoverX KINOMEscan scanMAX
Description: as §1

YANK2 = target: T22, YANK2 (Homo sapiens, UniProt Q9NY57)
T22 construct: purchased Eurofins/DiscoverX (KINOMEscan scanMAX service)
Description: as §1

[3] = target: T23, ABL1(F317L)-phosphorylated (Homo sapiens, UniProt P00519, F317L)
T23 construct: purchased Eurofins/DiscoverX KINOMEscan scanMAX
Description: as §1

CSK = target: T24, CSK (Homo sapiens, UniProt P41240)
T24 construct: purchased Eurofins/DiscoverX KINOMEscan scanMAX
Description: as §1

MAPKAPK5 = target: T25, MAPKAPK5 (Homo sapiens, UniProt Q8IW41)
T25 construct: purchased Eurofins/DiscoverX KINOMEscan scanMAX
Description: as §1

SRMS = target: T26, SRMS (Homo sapiens, UniProt Q9H3Y6)
T26 construct: purchased Eurofins/DiscoverX KINOMEscan scanMAX
Description: as §1

PLK2 = target: T27, PLK2 (Homo sapiens, UniProt Q9NYY3)
T27 construct: purchased Eurofins/DiscoverX KINOMEscan scanMAX
Description: as §1

[4] = target: T28, RPS6KA5(Kin.Dom.2-C-terminal) (Homo sapiens, UniProt O75582)
T28 construct: RPS6KA5(Kin.Dom.2-C-terminal); purchased Eurofins/DiscoverX KINOMEscan scanMAX
Description: as §1

LKB1 = target: T29, LKB1 (Homo sapiens, UniProt Q15831)
T29 construct: purchased Eurofins/DiscoverX KINOMEscan scanMAX
Description: as §1

PAK2 = target: T30, PAK2 (Homo sapiens, UniProt Q13177)
T30 construct: purchased Eurofins/DiscoverX KINOMEscan scanMAX
Description: as §1

YANK1 = target: T31, YANK1 (Homo sapiens, UniProt Q8WU08)
T31 construct: DNA tag (qPCR barcode); purchased Eurofins/DiscoverX KINOMEscan scanMAX
Description: as §1

FLT3(D835V) = target: T32, FLT3(D835V) (Homo sapiens, UniProt P36888, D835V)
T32 construct: purchased Eurofins/DiscoverX KINOMEscan scanMAX
Description: as §1

NEK1 = target: T33, NEK1 (Homo sapiens, UniProt Q96PY6)
T33 construct: purchased Eurofins/DiscoverX KINOMEscan scanMAX
Description: as §1

MRCKB = target: T34, MRCKB (Homo sapiens, UniProt Q9Y5S2)
T34 construct: purchased Eurofins/DiscoverX KINOMEscan scanMAX
Description: as §1

NDR2 = target: T35, NDR2 (Homo sapiens, UniProt Q9Y2H1)
T35 construct: purchased Eurofins/DiscoverX KINOMEscan scanMAX
Description: as §1

EPHB4 = target: T36, EPHB4 (Homo sapiens, UniProt P54760)
T36 construct: purchased Eurofins/DiscoverX KINOMEscan scanMAX
Description: as §1

CAMK4 = target: T37, CAMK4 (Homo sapiens, UniProt Q16566)
T37 construct: purchased Eurofins/DiscoverX KINOMEscan scanMAX
Description: as §1

PKAC-alpha = target: T38, PKAC-alpha (Homo sapiens, UniProt P17612)
T38 construct: purchased Eurofins/DiscoverX KINOMEscan scanMAX
Description: as §1

ERK3 = target: T39, ERK3 (Homo sapiens, UniProt Q16659)
T39 construct: purchased Eurofins/DiscoverX KINOMEscan scanMAX
Description: as §1

KIT(V559D,T670I) = target: T40, KIT(V559D,T670I) (Homo sapiens, UniProt P10721, T670I/V559D)
T40 construct: purchased Eurofins/DiscoverX KINOMEscan scanMAX
Description: as §1

T18 sequence (P00519 whole entry F317I): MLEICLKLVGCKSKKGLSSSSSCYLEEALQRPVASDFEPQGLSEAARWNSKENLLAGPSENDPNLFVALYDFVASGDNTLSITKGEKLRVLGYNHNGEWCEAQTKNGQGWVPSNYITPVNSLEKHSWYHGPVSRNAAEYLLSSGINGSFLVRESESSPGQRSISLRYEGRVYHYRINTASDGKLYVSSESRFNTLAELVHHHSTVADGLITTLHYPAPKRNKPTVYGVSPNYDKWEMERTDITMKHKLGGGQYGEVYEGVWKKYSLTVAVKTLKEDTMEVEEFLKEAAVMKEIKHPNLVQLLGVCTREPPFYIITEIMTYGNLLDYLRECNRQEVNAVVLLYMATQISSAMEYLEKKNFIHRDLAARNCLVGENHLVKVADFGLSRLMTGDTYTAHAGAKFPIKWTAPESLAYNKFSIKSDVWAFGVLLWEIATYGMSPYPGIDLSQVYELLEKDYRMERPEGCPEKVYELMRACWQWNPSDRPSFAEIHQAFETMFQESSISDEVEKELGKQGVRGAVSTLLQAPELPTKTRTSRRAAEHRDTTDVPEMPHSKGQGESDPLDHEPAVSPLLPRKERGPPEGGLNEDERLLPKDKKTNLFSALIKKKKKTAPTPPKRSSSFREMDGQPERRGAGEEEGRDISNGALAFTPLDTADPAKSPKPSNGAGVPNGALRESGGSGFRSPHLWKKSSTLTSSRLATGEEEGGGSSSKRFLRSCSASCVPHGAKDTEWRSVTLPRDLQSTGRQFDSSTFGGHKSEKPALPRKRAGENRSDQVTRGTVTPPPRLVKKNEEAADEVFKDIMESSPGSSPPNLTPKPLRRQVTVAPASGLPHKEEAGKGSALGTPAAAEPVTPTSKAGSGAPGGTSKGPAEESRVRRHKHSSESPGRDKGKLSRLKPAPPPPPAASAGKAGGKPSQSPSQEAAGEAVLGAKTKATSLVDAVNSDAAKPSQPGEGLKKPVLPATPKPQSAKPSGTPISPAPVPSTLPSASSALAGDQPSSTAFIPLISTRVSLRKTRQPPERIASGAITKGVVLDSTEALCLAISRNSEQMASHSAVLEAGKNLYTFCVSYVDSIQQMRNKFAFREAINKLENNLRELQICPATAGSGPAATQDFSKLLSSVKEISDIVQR
T17 sequence (P51813 whole entry): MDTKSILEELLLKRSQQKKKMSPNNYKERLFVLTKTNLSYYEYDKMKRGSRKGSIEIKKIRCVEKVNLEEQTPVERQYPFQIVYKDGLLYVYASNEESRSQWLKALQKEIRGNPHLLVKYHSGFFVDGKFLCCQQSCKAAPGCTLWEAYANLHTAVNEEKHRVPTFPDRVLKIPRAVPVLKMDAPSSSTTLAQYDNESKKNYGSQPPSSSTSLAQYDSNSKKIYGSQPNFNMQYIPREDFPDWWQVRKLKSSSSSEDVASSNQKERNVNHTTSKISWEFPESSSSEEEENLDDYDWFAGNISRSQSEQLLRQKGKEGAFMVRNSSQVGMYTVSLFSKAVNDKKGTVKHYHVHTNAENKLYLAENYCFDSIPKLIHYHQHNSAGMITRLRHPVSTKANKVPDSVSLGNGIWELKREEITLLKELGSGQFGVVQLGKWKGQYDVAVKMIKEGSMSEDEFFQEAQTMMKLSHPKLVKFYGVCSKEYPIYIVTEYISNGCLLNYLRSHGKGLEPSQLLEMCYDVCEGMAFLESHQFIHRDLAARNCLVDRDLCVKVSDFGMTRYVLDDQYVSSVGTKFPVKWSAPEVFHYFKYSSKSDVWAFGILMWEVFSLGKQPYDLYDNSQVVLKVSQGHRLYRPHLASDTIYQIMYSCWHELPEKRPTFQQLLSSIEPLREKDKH
T1 sequence (Q92918 whole entry): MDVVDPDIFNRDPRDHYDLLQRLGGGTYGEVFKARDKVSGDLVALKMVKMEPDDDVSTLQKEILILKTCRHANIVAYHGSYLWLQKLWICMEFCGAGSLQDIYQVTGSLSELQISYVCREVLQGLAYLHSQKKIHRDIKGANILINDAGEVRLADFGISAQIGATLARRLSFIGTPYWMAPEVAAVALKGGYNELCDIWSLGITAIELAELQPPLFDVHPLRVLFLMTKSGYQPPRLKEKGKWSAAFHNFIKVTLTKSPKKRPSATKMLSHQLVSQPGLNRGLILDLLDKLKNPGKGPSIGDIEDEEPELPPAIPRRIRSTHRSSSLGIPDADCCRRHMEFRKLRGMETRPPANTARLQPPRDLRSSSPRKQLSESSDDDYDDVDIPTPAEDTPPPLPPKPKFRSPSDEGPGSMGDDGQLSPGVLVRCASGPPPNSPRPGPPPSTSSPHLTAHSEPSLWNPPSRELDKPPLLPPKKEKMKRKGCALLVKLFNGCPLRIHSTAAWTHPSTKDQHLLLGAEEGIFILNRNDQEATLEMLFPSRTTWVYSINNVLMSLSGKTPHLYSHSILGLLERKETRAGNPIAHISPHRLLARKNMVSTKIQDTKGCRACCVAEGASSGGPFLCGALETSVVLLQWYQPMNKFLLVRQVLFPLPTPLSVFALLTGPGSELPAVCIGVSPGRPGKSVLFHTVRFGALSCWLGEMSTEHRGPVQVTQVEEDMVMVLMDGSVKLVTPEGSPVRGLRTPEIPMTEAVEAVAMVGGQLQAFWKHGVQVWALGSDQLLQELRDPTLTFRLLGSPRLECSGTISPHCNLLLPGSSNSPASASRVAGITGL
T8 sequence (Q15349 59-388 limits assumed): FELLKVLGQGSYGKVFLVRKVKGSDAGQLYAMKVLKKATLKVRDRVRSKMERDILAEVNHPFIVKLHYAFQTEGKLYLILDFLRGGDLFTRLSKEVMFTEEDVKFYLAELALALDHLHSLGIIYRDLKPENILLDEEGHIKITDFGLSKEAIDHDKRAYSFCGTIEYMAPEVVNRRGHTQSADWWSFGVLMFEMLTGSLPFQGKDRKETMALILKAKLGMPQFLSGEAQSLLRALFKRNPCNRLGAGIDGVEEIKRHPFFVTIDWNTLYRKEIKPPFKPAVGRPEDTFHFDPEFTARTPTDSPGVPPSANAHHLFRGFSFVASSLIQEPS
T25 sequence (Q8IW41 whole entry): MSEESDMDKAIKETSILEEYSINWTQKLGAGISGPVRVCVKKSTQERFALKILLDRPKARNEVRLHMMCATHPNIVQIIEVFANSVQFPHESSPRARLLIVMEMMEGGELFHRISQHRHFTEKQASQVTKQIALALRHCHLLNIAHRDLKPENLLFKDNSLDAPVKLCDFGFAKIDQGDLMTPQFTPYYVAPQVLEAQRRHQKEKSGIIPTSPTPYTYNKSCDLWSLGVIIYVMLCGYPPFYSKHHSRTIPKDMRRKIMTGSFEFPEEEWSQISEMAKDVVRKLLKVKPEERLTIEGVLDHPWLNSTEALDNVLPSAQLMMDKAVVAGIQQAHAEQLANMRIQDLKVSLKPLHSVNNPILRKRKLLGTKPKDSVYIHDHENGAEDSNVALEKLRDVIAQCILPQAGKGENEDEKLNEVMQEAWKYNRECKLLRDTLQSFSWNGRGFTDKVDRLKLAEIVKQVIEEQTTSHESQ
T14 sequence (P11802 whole entry): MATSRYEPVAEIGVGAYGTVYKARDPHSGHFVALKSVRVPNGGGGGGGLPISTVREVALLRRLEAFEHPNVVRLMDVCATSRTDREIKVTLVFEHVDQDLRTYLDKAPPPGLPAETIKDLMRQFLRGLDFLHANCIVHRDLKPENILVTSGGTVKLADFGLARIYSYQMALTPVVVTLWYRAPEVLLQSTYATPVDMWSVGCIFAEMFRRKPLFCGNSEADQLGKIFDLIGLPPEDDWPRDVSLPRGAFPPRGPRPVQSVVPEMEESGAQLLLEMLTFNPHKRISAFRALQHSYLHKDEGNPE
T23 sequence (P00519 whole entry F317L): as the sequence (P00519 whole entry F317I) above, with I317L counted along it
T37 sequence (Q16566 whole entry): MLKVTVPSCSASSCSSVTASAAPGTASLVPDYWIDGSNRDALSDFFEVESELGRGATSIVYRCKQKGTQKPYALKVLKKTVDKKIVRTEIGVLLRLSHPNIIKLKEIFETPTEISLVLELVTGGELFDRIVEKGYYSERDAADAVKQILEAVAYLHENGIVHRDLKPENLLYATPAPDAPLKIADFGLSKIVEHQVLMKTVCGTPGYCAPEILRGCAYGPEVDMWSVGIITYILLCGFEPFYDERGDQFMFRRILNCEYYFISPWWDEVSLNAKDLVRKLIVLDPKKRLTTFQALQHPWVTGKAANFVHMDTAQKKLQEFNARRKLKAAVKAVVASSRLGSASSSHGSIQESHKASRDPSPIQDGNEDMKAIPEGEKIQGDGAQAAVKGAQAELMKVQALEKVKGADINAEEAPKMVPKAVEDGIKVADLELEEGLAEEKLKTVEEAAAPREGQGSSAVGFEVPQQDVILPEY
T30 sequence (Q13177 whole entry): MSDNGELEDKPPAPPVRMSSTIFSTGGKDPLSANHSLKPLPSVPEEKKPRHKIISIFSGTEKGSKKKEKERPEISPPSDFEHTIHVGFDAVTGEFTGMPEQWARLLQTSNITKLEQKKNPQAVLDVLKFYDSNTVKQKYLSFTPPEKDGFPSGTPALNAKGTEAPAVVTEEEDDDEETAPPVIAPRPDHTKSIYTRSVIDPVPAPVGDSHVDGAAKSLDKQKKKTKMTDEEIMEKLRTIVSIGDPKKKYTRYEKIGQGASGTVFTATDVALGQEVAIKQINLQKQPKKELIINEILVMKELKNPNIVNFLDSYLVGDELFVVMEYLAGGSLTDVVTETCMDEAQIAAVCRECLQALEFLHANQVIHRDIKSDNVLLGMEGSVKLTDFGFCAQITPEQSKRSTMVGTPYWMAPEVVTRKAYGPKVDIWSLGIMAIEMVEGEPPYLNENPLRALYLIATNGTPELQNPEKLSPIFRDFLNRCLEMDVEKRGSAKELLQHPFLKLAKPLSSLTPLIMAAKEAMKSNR

With `CN1CCN(C2CCC(n3cc(-c4ccc(Oc5ccccc5)cc4)c4c(N)ncnc43)CC2)CC1` (stereo not shown) [A-419259] the “% Control” value (HPK1) was 44%, the “% Control” value (EPHB6) was 6.8% and the “% Control” value (TIE2) was 15%. For the same molecule, the “% Control” value (STK35) was 27%, the “% Control” value (PIK3CA(M1043I)) was 100% and the “% Control” value (DYRK1A) was 99%. The “% Control” value (FYN) was 5.1%, the “% Control” value [1] was 22% and the “% Control” value (MERTK) was 12%. The “% Control” value (SBK1) was 96%, the “% Control” value (SGK) was 75% and the “% Control” value (ERK5) was 58%. For the same molecule, the “% Control” value (VRK2) was 39%, the “% Control” value (CDK4) was 91% and the “% Control” value (PRKD1) was 63%. For the same molecule, the “% Control” value (PAK3) was 36%, the “% Control” value (BMX) was 30% and the “% Control” value [2] was 2.5%. The “% Control” value (KIT(D816H)) was 40%, the “% Control” value (NLK) was 83% and the “% Control” value (PIK3CA(C420R)) was 100%. For the same molecule, the “% Control” value (YANK2) was 30%, the “% Control” value [3] was 0% and the “% Control” value (CSK) was 2.1%. The “% Control” value (MAPKAPK5) was 100%, the “% Control” value (SRMS) was 0% and the “% Control” value (PLK2) was 77%. The “% Control” value [4] was 96%, the “% Control” value (LKB1) was 100% and the “% Control” value (PAK2) was 91%. For the same molecule, the “% Control” value (YANK1) was 30%, the “% Control” value (FLT3(D835V)) was 0.15% and the “% Control” value (NEK1) was 100%. The “% Control” value (MRCKB) was 100%, the “% Control” value (NDR2) was 80% and the “% Control” value (EPHB4) was 100%. The “% Control” value (CAMK4) was 100%, the “% Control” value (PKAC-alpha) was 100% and the “% Control” value (ERK3) was 100%. The “% Control” value (KIT(V559D,T670I)) was 40%.
